Assay results from patent US20040097595A1, “Phthalamide derivatives, insecticides for agricultural and horticultural use and method for application thereof” (priority 2001, published 2004).

Key:
Assay type in all cases: in vivo
[1] = tested on: Common Cutworm (Spodoptera litura); assay: Comparative Test Example 1: insecticidal effect on common cutworm, treated synthetic diet; conditions: 192 h, synthetic diet treated with 0.5 ml, third-instar larvae, eight days after inoculation
Protocol: (§1) Insecticidal Effect on Common Cutworm (Spodoptera litura)
A synthetic diet packed in a plastic Petri dish was treated with 0.5 ml of a liquid chemical prepared by diluting a preparation containing compound 1-51 as an active ingredient to adjust the prescribed concentration, by adding the liquid chemical dropwise to the synthetic diet. The synthetic diet was inoculated with third-instar larvae of common cutworm, after which the dish was closed and then allowed to stand in a room thermostatted at 25° C. Eight days after the inoculation, the dead and alive were counted, and the mortality was calculated according to the following equation. The test was carried out with triplicate groups of 10 insects. [formula]
The compounds described in JP-A-2001-131141 were used as comparative compounds as follows: […]

[2] = tested on: Common Cutworm (Spodoptera litura); assay: Comparative Example 2: insecticidal effect on common cutworm by soil treatment for cabbage; parameters: concentration or dose not given beside the values; conditions: granules in planting holes; leaf cut eleven days after transplanting; first-instar larvae; three days after inoculation
Protocol: Insecticidal Effect on Common Cutworm (Spodoptera litura) by Soil Treatment for Cabbage
At the time of trans-planting cabbage plants (cultivar: YR Seitoku), planting holes were treated with granules prepared from compound 1-51 according to Formulation Example. Eleven days after the transplanting, a leaf was cut off from the cabbage plant, placed in a plastic Petri dish, and then inoculated with 20 first-instar larvae of common cutworm. Thereafter, the dish was closed and then allowed to stand in a room thermostatted at 25° C. Three days after the inoculation, the dead and alive were counted and the mortality was calculated in the same manner as in Comparative Test Example 1.

[3] = tested on: Common Cutworm (Spodoptera litura); assay: Test Example 2: insecticidal effect on common cutworm, cabbage leaf immersion; conditions: cabbage leaf immersed, second-instar larvae, eight days after inoculation, 25° C.
Excerpt: as §1
A piece of cabbage leaf (cultivar; Shikidori) was immersed for about 30 seconds in a liquid chemical prepared by diluting a preparation containing each compound listed in Table 1 or 2 as an active ingredient to adjust the prescribed concentration. After air-dryness, it was placed in a plastic Petri dish with a diameter of 9 cm and inoculated with second-instar larvae of common cutworm, after which the dish was closed and then allowed to stand in a room thermostatted at 25° C. Eight days after the inoculation, the dead and alive were counted. The mortality was calculated according to the following equation and the insecticidal effect was judged according to the criterion shown in Test Example 1. The test was carried out with triplicate groups of 10 insects. [formula]

[4] = tested on: Diamond Back Moth (Plutella xylostella); assay: Test Example 1: insecticidal effect on diamond back moth, Chinese cabbage seedling with eggs immersed in liquid chemical; conditions: eggs on Chinese cabbage seedling immersed about 30 seconds, six days after immersion, 25° C.
Excerpt: Insecticidal Effect on Diamond Back Moth (Plutella xylostella)
Adult diamond back moths were released and allowed to oviposit on a Chinese cabbage seedling. Two days after the release, the seedling having the eggs deposited thereon was immersed for about 30 seconds in a liquid chemical prepared by diluting a preparation containing each compound listed in Table 1 or 2 as an active ingredient to adjust the prescribed concentration. After air-dryness, it was allowed to stand in a room thermostatted at 25° C. Six days after the immersion, the hatched insects were counted. The mortality was calculated according to the following equation and the insecticidal effect was judged according to the criterion shown below. The test was carried out with triplicate groups of 10 insects. [formula]

Structure (SMILES)	mortality at 5 ppm [1]	mortality at 50 ppm [1]	mortality at 500 ppm [1]	Mortality, Highest leaf [2]	Mortality, Second highest leaf [2]	Mortality, Third highest leaf [2]	Test Example 2 insecticidal effect (mortality grade) ([3]; 5 ppm)	Test Example 2 insecticidal effect (mortality grade) ([3]; 50 ppm)	Test Example 1 insecticidal effect (mortality grade) ([4]; 5 ppm)	Test Example 1 insecticidal effect (mortality grade) ([4]; 50 ppm)
CSCC(C)(C)NC(=O)c1c(I)cccc1C(=O)Nc1ccc(OC(F)(F)F)cc1Cl [Compound A, N^1-[2-chloro-4-(trifluoromethoxy)phenyl]-N^2-(1,1-dimethyl-2-methylthioethyl)-3-iodophthalamide]	5%	100%	100%	0%	95%	100%				
CC(C)(CS(C)(=O)=O)NC(=O)c1c(I)cccc1C(=O)Nc1ccc(OC(F)(F)F)cc1Cl [Compound B, N^1-[2-chloro-4-(trifluoromethoxy)phenyl]-3-iodo-N^2-(1,1-dimethyl-2-methylsulfonylethyl)phthalamide]	0%	100%	100%	0%	50%	100%				
CSCC(C)(C)NC(=O)c1c(I)cccc1C(=O)Nc1ccc(-c2ccc(Cl)cc2)cc1Cl [Compound 1-38]							E (Mortality 49-0%)	A (Mortality 100%)	A (Mortality 100%)	A (Mortality 100%)
CSCC(C)(C)NC(=O)c1c(I)cccc1C(=O)Nc1ccc(OC(F)(F)C(F)C(F)(F)F)c(Cl)c1Cl (stereo not shown) [Compound 1-66, 3-iodo-N^1-[2,3-dichloro-4-(1,1,2,3,3,3-hexafluoropropoxy)phenyl]-N^2-[(1,1-dimethyl-2-methylthio)ethyl]phthalamide]							E (Mortality 49-0%)	A (Mortality 100%)	E (Mortality 49-0%)	A (Mortality 100%)
CSCC(C)(C)NC(=O)c1c(I)cccc1C(=O)Nc1cc(Cl)c(OC(F)(Cl)C(F)(Cl)C(F)(F)F)cc1Cl (stereo not shown) [Compound 1-73]							E (Mortality 49-0%)	A (Mortality 100%)	E (Mortality 49-0%)	A (Mortality 100%)
CSCC(C)(C)NC(=O)c1c(I)cccc1C(=O)Nc1ccc(OC(F)(F)C(F)OC(F)(F)F)cc1Cl (stereo not shown) [Compound 1-74]							E (Mortality 49-0%)	A (Mortality 100%)	A (Mortality 100%)	A (Mortality 100%)
CSCC(C)(C)NC(=O)c1c(I)cccc1C(=O)Nc1ccc(OC(C(F)(F)F)C(F)(F)F)cc1Cl [Compound 1-64]							A (Mortality 100%)	A (Mortality 100%)	A (Mortality 100%)	A (Mortality 100%)
CC(C)(CS(C)(=O)=O)NC(=O)c1c(I)cccc1C(=O)Nc1ccc(C(F)(F)F)cc1Cl [Compound 1-22]							C (Mortality 89-80%)	A (Mortality 100%)	A (Mortality 100%)	A (Mortality 100%)
C[S+]([O-])CC(C)(C)NC(=O)c1c(I)cccc1C(=O)Nc1ccc(C(F)(F)F)cc1Cl (stereo not shown) [Compound 1-21]							C (Mortality 89-80%)	A (Mortality 100%)	A (Mortality 100%)	A (Mortality 100%)
CC(C)(CS(C)(=O)=O)NC(=O)c1c(I)cccc1C(=O)Nc1ccc(OC(F)F)c(Cl)c1Cl [Compound 1-45]							E (Mortality 49-0%)	A (Mortality 100%)	A (Mortality 100%)	A (Mortality 100%)
C[S+]([O-])CC(C)(C)NC(=O)c1c(I)cccc1C(=O)Nc1ccc(OC(F)F)c(Cl)c1Cl (stereo not shown) [Compound 1-44]							E (Mortality 49-0%)	A (Mortality 100%)	A (Mortality 100%)	A (Mortality 100%)
C[S+]([O-])CC(C)(C)NC(=O)c1c(I)cccc1C(=O)Nc1ccc(OC(F)(F)C(F)C(F)(F)F)c(Cl)c1Cl (stereo not shown) [Compound 1-70]							E (Mortality 49-0%)	A (Mortality 100%)	A (Mortality 100%)	A (Mortality 100%)
CC(C)(CS(C)(=O)=O)NC(=O)c1c(I)cccc1C(=O)Nc1ccc(OC(F)(F)C(F)C(F)(F)F)cc1Cl (stereo not shown) [Compound 1-68]							E (Mortality 49-0%)	A (Mortality 100%)	A (Mortality 100%)	A (Mortality 100%)
CSCC(C)(C)NC(=O)c1c(I)cccc1C(=O)Nc1ccc(C(F)(F)F)cc1Cl [Compound 1-20]							A (Mortality 100%)	A (Mortality 100%)	A (Mortality 100%)	A (Mortality 100%)
CSCC(C)(C)NC(=O)c1c(I)cccc1C(=O)Nc1ccc(Oc2c(Cl)cc(C(F)(F)F)c(F)c2Cl)cc1Cl [Compound 1-93]							E (Mortality 49-0%)	C (Mortality 89-80%)	A (Mortality 100%)	A (Mortality 100%)
